Assay results from patent US20120252801A1, “ANTIFUNGAL COMPOUNDS” (Katholieke Universiteit Leuven, K.U.Leuven R&D, priority 2009, published 2012).
≈ marks a conversion by molar mass, not a printed value.

How the values were obtained:
C. albicans SC5314 [1] = assay: Minimal fungicidal concentration (MFC) against C. albicans; assay type: cell-based; conditions: Candida albicans, 24 h at 37° C. in PBS, less than 1% survival relative to DMSO control
Protocol: (§1) Two-fold dilution series of the compounds were prepared in 50% DMSO. 5 μl of these series were added to 95 μl PBS buffer inoculated with 1/500 cells of an overnight culture of either C. albicans, C. glabrata or C. krusei (final DMSO conc 2%). 2% DMSO served as negative control. After 24 h incubation at 37° C. of these cultures with the antifungal compounds in PBS, the cell cultures were plated on YPD agar and colony forming units (CFUs) were determined after incubation of the plates for 2 days. MFC was determined as the minimal concentration of a compound resulting in less than 1% survival of the yeast culture relative to the DMSO control.

C. glabrata = assay: Minimal fungicidal concentration (MFC) against C. glabrata; assay type: cell-based, Candida glabrata; conditions: Nakaseomyces glabratus; 24 h at 37° C. in PBS; less than 1% survival relative to DMSO control
Protocol: as §1

A. fumigatus = assay: Minimal inhibitory concentration (MIC) against A. fumigatus; assay type: cell-based; conditions: Aspergillus fumigatus; minimal concentration that inhibits growth
Aspergillus flavus = assay: Minimal inhibitory concentration (MIC) against A. flavus; assay type: cell-based; conditions: 24 h at 25° C. in ½ PDB, minimal concentration that inhibits growth
Protocol: (§2) To determine the MIC and MFC of a compound against Aspergillus flavus, Fusarium oxysporum or F. culmorum, a 2-fold dilution series of the compounds of the invention was incubated with the corresponding spore suspension in ½ PDB (potato dextrose broth, Difco) (2×10^4 spores/ml). […] MFC was determined as the minimal concentration of a compound resulting in less than 1% survival of the fungal culture relative to the DMSO control.

Fusarium oxysporum = assay: Minimal inhibitory concentration (MIC) against F. oxysporum; assay type: cell-based; conditions: 24 h at 25° C. in ½ PDB, minimal concentration that inhibits growth
Protocol: as §2

HepG2 cells = assay: Cellular cytostatic and/or cytotoxic effect on HepG2 cells; assay type: cell-based
Protocol: Evaluation of the cytostatic and/or cytotoxic effect of compounds on certain specific eukaryotic cells is a standard procedure and well known to the person skilled in the art. The effect of a selection of compounds of the invention on the proliferation of HepG2 cells was measured.

C. albicans SC5314 [2] = assay: C. elegans model for C. albicans infection; assay type: in vivo; conditions: different concentrations; FIG. 1
Protocol: The in vivo efficacy of the compounds was assessed in a C. elegans model for Candida infection as described by Breger et al., 2007 (Breger, J., et al. 2007. PLoS Pathog. 3:[…]). To this end, L4 larvae of a double mutant (glp-[…]) of C. elegans were used and fed for 4 h on C. albicans SC5314 agar plates (YPD agar plates on the surface inoculated with 100 μl of an overnight culture in YPD and incubated for 16 h at 37° C.). Worms were collected and washed with M9 buffer containing 3 g/L KH2PO4, 6 g/L Na2HPO4, 5 g/L NaCl, 1 mM MgSO4, 10 μg/mL cholesterol and 100 μg/mL Kanamycin. Forty-to-fifty worms were suspended in 1 mL in each well of 24-well microtiterplates, in the presence or absence (DMSO control) of the compounds of the invention (at different concentrations). Survival of the worms was monitored daily. The percentage survival of the worms in the presence or absence of antifungal compounds was calculated each day relative to the survival at day 0. Data are means of duplicate measurements and experiments were performed at least twice. As positive controls for efficacy testing, amphotericin B (10 μg/ml) and miconazole (10 μg/ml) in DMSO can be used.

C. albicans SC5314 [3] = assay: Mouse model for Candidiasis, fungal burden in the kidney; assay type: in vivo, BALB/c mice; conditions: 10 mg/kg intraperitonealy, once or twice a day; kidneys 5 days after infection; FIG. 2
Description: An assay for in vivo efficacy measurement using mouse model for Candidiasis Fungal burden in the kidney of infected mice was used to evaluate the (prophylactic and/or therapeutic) activity of the compounds of the invention in murine models of infection by C. albicans, as described in the prior art (Tavares P M et al. Antimicrob Agents Chemother. 2008 December; 52(12):4522-5; Clemons K V, D A Stevens, J Antimicrob. Chemother. 2001; 47:183-186; Okawa Yet al., Biol Pharm Bull 2007, 30:1870-1873). In general, mice can be inoculated intravenously via lateral tail vein with 2×10^5 to […] C. albicans yeast cells suspended in saline. The compounds can be administered (for example intravenously or intraperitonealy or orally) before (for example 1 hour before) or after (for example 16 hours after) the challenge with C. albicans. After this first injection, four similar subsequent injections can be made with 24 h or other intervals. […] 100 μl-samples can be plated onto solid brain heart infusion (BHI) plates and C. albicans CFU (colony forming units) are counted after 2 days.
More specifically, the in vivo experiment was performed as following (in accordance with Tavares P M et al. Antimicrob Agents Chemother. 2008 December; 52(12):4522-5). […] 100 μl-samples were plated onto solid brain heart infusion (BHI) plates and C. albicans CFU (colony forming units) were counted after 2 days. […]

Row | MIC (A. fumigatus) [µg/mL] | MIC (Aspergillus flavus) [µg/mL] | MIC (Fusarium oxysporum) [µg/mL] | SMILES | MFC (C. albicans SC5314 [1]) [µg/mL] | MFC (C. glabrata) [µg/mL] | LD30 48 h (lethal dose for 30% of the cells in culture) (HepG2 cells) [µM] | % survival of C. albicans infected C. elegans (C. albicans SC5314 [2]) | activity against Candida albicans infection (CFU from kidneys) (C. albicans SC5314 [3])
1 | 1.6 (≈ 4.81 µM) | 12.5 (≈ 37.6 µM) | 50 (≈ 150 µM) | CCN1CC(C)(C)OC(=O)C1CC(=O)Nc1ccc(C(C)C)cc1 (centres unmarked) [CPD-06, 2-(4-ethyl-6,6-dimethyl-2-oxomorpholin-3-yl)-N-(4-isopropylphenyl)acetamide] | 12.5 (≈ 37.6 µM) | 25 (≈ 75.2 µM) | >25 | increase in survival | strong activity
2 | 3.12 (≈ 9.1 µM) | 25 (≈ 72.8 µM) | 50 (≈ 146 µM) | CCN1CC(C)(C)OC(=O)C1CC(=O)Nc1ccc2c(ccn2C)c1 (centres unmarked) [CPD-07, 2-(4-ethyl-6,6-dimethyl-2-oxomorpholin-3-yl)-N-(1-methyl-1H-indol-5-yl)acetamide] | 12.5 (≈ 36.4 µM) | 50 (≈ 146 µM) | >25 | – | –
3 | 6.25 (≈ 18.4 µM) | 25 (≈ 73.8 µM) | 50 (≈ 148 µM) | CCN1CC(C)(C)OC(=O)C1CC(=O)NCc1ccc(Cl)cc1 (centres unmarked) [CPD-08, N-(4-chlorobenzyl)-2-(4-ethyl-6,6-dimethyl-2-oxomorpholin-3-yl)acetamide] | 12.5 (≈ 36.9 µM) | 12.5 (≈ 36.9 µM) | >25 | – | –
4 | 25 (≈ 80.5 µM) | 50 (≈ 161 µM) | 50 (≈ 161 µM) | CCN1CC(C)(C)OC(=O)C1CC(=O)NCc1cccs1 (centres unmarked) [CPD-22, 2-(4-ethyl-6,6-dimethyl-2-oxomorpholin-3-yl)-N-(thiophen-2-ylmethyl)acetamide] | 25 (≈ 80.5 µM) | 50 (≈ 161 µM) | >25 | – | –
5 | 3.12 (≈ 9.22 µM) | 50 (≈ 148 µM) | 50 (≈ 148 µM) | CCN1CC(C)(C)OC(=O)C1CC(=O)NCc1cccc(Cl)c1 (centres unmarked) [CPD-49, N-(3-chlorobenzyl)-2-(4-ethyl-6,6-dimethyl-2-oxomorpholin-3-yl)acetamide] | 6.25 (≈ 18.4 µM) | 6.25 (≈ 18.4 µM) | >25 | – | –
6 | 12.5 (≈ 33.5 µM) | 50 (≈ 134 µM) | 50 (≈ 134 µM) | CCN1CC(C)(C)OC(=O)C1CC(=O)NCc1c(Cl)cccc1Cl (centres unmarked) [CPD-51, N-(2,6-dichlorobenzyl)-2-(4-ethyl-6,6-dimethyl-2-oxomorpholin-3-yl)acetamide] | 12.5 (≈ 33.5 µM) | 25 (≈ 67 µM) | >25 | – | –
